Data set [1] can be described thus: Solubility of the quinone compound in aqueous solution / solvents. It counts as physicochemical. From the text:
The quinone compound can be applied to the substrate in the form of a solution. The solution can be an aqueous or semi-aqueous solution. The quinone compound can be soluble or semi-soluble in the solution. Depending on the pH of the solution the quinone compound can be soluble or partially soluble. The partially soluble quinone can exist as either suspended crystalline particles, fine particles, colloidal particles, etc. […] This compound can exist in solution as particles, crystals, colloids, etc. In some embodiments, the semi-aqueous or non-aqueous solutions containing suitable particles, crystals, colloids, etc. can be used to achieve penetration of a quinone compound into and under the surface of a substrate.
(§1) A power pole made from southern yellow pine is treated with a sodium salt of 9,10 dihyroxyanthracene (also known as AHQ or anthrahydroquinone) to render the pole resistant to pest and/or fungal damage. The sodium salt of 9,10 dihyroxyanthracene is stable in an oxygen free and high pH environment (e.g., above pH 11). In the high pH solution, the compound has a solubility of around 10% (wt/v). A 10% solution of AHQ is prepared in an aqueous solution having a pH of about 12. The pole is soaked in the bath of 10% AHQ for about 20-30 minutes at 70-80° C. with little or no air exposure. A portion of the AHQ penetrates into the top layer of the pole. The depth of penetration can range from 1 mm to 200 mm.
(§2) After soaking, the pole is transferred to a water tank where the surface would be neutralized. The water having a nominal pH of about 7. Alternatively, the pole is dried in air without rinsing. AHQ is unstable in the presence of air (e.g., oxygen) unless it is maintained in a high pH solution. If exposed to a lower pH or air (e.g., oxygen), the AHQ can be converted to 9,10 anthraquinone (also known as AQ). AQ is insoluble in almost every solvent including water. Therefore, AQ precipitates out of solution and becomes trapped in the top layer of the pole. AQ forms both on the surface and inside the wood fibers of the upper layers of the pole. This outer layer of pole is now both termite and woodpecker proof. Because anthraquinones can be effective fungicides, the pole is now also fungi proof.

The test system of the next data set is Pileated woodpeckers. The experiment in a line: Caged Pileated woodpecker trials (two-choice then one-choice test) with treated and untreated utility pole sections. Format: in vivo, Pileated woodpecker (Dryocopus pilealus). As to conditions: poles treated with AHQ versus untreated poles; FIGS. 2-4. The protocol: Overview. A series of caged Pileated woodpecker trials are conducted using power pole segments both untreated and treated with a quinone. The treatment segments contain the quinone compound in a range of concentrations. The quinone compound is also applied by either painting or soaking. The quinone compound is applied in a high pH solution (i.e., in a water soluble form). Thereafter, the segments are treated with a lower pH solution to convert the quinone to a water insoluble form. The bird's preference to nest building excavation for each segment is measured. Both the soaked and painted segments show lower incidence of nesting evacuation. […]
The initial placement of the treated and the untreated poles in each enclosure was randomly determined. […] At the beginning of each test day, starting on day 2 (0800), woodpecker damage to each pole was measured by collecting and weighing the wood chips that were removed. […] The camera recorded woodpecker activity on poles for during the first two hours of each day during the test period. […]
The weight of wood chips removed by Pileated woodpeckers follow a three-factor repeated measures design, where observations are repeated on each bird for all three factors: treatment (chemical) time (pre and post-treatment), and pole (control and treated)). All data was analyzed as mixed liner models. […]

Data set [2] is described as follows: Stability of AHQ towards air (oxygen) and pH. Format: physicochemical. On the procedure: as §1
as §2, with “This outer layer of pole is now both termite and woodpecker proof. Because anthraquinones can be effective fungicides, the pole is now also fungi proof.” left out

Consider `Oc1c2ccccc2c(O)c2ccccc12` [9,10-anthrahydroquinone], for which, in data set [1] (slightly basic or neutral pH values), the “solubility in aqueous solutions” value is given as “only slightly soluble or insoluble”.

Turning to `[Na+].[Na+].[O-]c1c2ccccc2c([O-])c2ccccc12` [AHQ, sodium salt of 9,10 dihyroxyanthracene], in the data set on Pileated woodpeckers, the “weight of wood chips removed from poles” value was “surprisingly less than the weight of wood chips removed from untreated poles”. Also, the stability result was “stable” in data set [2] (oxygen free and high pH environment (e.g., above pH 11)); “unstable” in data set [2] (presence of air (e.g., oxygen), unless maintained in a high pH solution). For the same compound, the “solubility in aqueous solutions” value in data set [1] (high pH (e.g., pH 11 or more)) is “readily soluble”. For the same compound, in data set [1] (in the high pH solution (e.g., above pH 11)), the solubility entry is “around 10 % (wt/v)”.

For `O=C1c2ccccc2C(=O)c2ccccc21` [AQ, 9,10 anthraquinone], the solubility in solvents result in data set [1] is given as “insoluble”.

These data come from patent publication US20170298209A1, “USE OF A QUINONE COMPOUND IN BUILDING MATERIALS” (Arkion Life Sciences, LLC, priority 2014, published 2017).
